Test results published in PubChem BioAssay AID2765 (Broad Institute, 2010).
Calls of active or inactive are those of the source.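 Rule for the calls: active = half-maximal concentration for the rise in caspase light signal at or below ten times the top tested dose; inconclusive = flat fit between 30% and 70% activity, or unreliable curve fit; inactive = the rest.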

These molecules were tested on MEF A1-2A-BIM cells, caspase 3/7 luminescence, 3 h (assay: caspase activation in A1-2A-BIM MEF cells, dose response, A1 inhibitor project, cell-based, luminescence, retest (AID 2765)).

| Compound | EC50 |
| --- | --- |
| O=C(Cn1ncc(Cl)c(Cl)c1=O)NCC1CCCCC1 | > 35 µM (inactive) |
| Cc1ccc(-c2nc(NC(=O)c3nn(C)cc3[N+](=O)[O-])sc2C)cc1 | 9.72 µM |
| CC(Oc1ccccc1)C(=O)N1CCN=C1SCc1ccccc1 (configuration not stated) | > 35 µM (inactive) |
| CCCCc1ccc(NC(=O)CN(C)CC(=O)Nc2ccccc2Cl)cc1 | > 35 µM (inactive) |
| N#Cc1cccnc1N1CCN(C(=O)c2cccc3c2C(=O)c2ccc(-c4ccc(Cl)c(C(F)(F)F)c4)cc2S3(=O)=O)CC1 | > 35 µM (inactive) |
| CCOc1ccccc1CNC(=O)Cn1nc(C)c2c(C)n(-c3ccc(C)cc3)nc2c1=O | > 35 µM (inactive) |
| COC(=O)C1=C(C)N(Cc2ccccc2)C(=NCc2cc(OC)c(OC)c(OC)c2)N[C@H]1c1ccccc1 | > 35 µM (inactive) |
| CCOc1cc2c(cc1OCC)C(c1ccccc1)N(c1ccccc1)C(=O)C2 (configuration not stated) | > 35 µM (inactive) |
| O=C(NCCc1ccc(Cl)cc1)C1CCCN(S(=O)(=O)N2CCCCCC2)C1 (configuration not stated) | > 35 µM (inactive) |
| Cc1ccccc1/C=C/C(=O)c1ccc([N+](=O)[O-])o1 | > 35 µM (inactive) |
| O=C(OCn1ncc(Cl)c(Cl)c1=O)c1cccc(C(F)(F)F)c1 | > 35 µM (inactive) |
| CCOC(=O)c1c(C)[nH]c(C)c1C(=O)CSc1nc2ccccc2n1CCOC | > 35 µM (inactive) |
| COc1ccc(C(O)Cc2nccn2C)cc1 (configuration not stated) | > 35 µM (inactive) |
| COc1ccccc1C(=O)NC(=O)COC(=O)CCS(=O)(=O)c1ccc(C)cc1 | > 35 µM (inactive) |
| CC(C)C[C@H](NC(=O)N1CCn2c1nc1ccccc12)C(=O)NCc1ccccc1 | > 35 µM (inactive) |
| COc1ccccc1CCNC(C)CCc1ccc(O)cc1 (configuration not stated) | > 35 µM (inactive) |
| O=C(CCCCCn1c(=O)[nH]c2ccsc2c1=O)N1CCN(C2CCCCC2)CC1 | > 35 µM (inactive) |
| O=C(Cc1ccccc1)N1CCc2[nH]nc(-c3ccccc3)c2C1 | > 35 µM (inactive) |
| NCCCC[C@H](N[C@@H](CCc1ccccc1)C(=O)O)C(=O)N1CCC[C@H]1C(=O)O | > 35 µM (inactive) |
| C=C1C(=O)O[C@H]2C[C@@H](C)[C@@H]3C=CC(=O)[C@@]3(C)C[C@H]12 | > 35 µM (inactive) |
| COc1ccc(CNC(=O)CN(Cc2ccc(Cl)cc2)S(=O)(=O)c2ccccc2)cc1 | > 35 µM (inactive) |
| CCCn1c(=N)n(CCOc2ccc(OC)cc2)c2ccccc21 | > 35 µM (inactive) |
| CN(C(=O)c1ccc(NC(=O)C2CCCN(C(=O)OC(C)(C)C)C2)cc1)C1CC1 (configuration not stated) | > 35 µM (inactive) |
| Cc1[nH]n(-c2cccc(Cl)c2)c(=O)c1C=NC12CN3CN(CN(C3)C1)C2 | > 35 µM (inactive) |

| Compound | EC50 |
| --- | --- |
| CCOc1ccccc1OCCC(=O)N1CCN(S(=O)(=O)c2ccccc2[N+](=O)[O-])CC1 | > 35 µM (inactive) |
| Clc1ccc(C2=CC(c3ccco3)n3ncnc3N2)cc1 (configuration not stated) | > 35 µM (inactive) |
| CSC(SC)=C(C#N)C(=O)c1ccccc1 | > 35 µM (inactive) |
| COc1ccc(NC(=O)C(=O)N/N=C\c2ccc(CNC(=O)C(=O)Nc3ccc(C)c(C)c3)o2)c(OC)c1 | 14.3 µM |
| CC(C)CCNC(=O)c1cc(-c2ccncc2)nc2ccc(S(=O)(=O)N3CCOCC3)cc12 | > 35 µM (inactive) |
| Cc1cccc[n+]1CC(=O)c1ccccc1 | > 35 µM (inactive) |
| COC(=O)c1ccc2c(c1)C(C)(C)C(/C=C/c1ccc(O)cc1)=[N+]2C | 15.2 µM |
| FC(F)(F)c1cccc(Cc2noc(CN3CCCC(OCc4ccccn4)C3)n2)c1 (configuration not stated) | > 35 µM (inactive) |
| O=C(Nc1ccccc1N1CCCC1)C1CCN(S(=O)(=O)c2ccc(F)cc2)CC1 | > 35 µM (inactive) |
| COCc1cc(C)nc(SCC(=O)Nc2ccc3c(c2)OCO3)c1C#N | > 35 µM (inactive) |
| CCN(C(=O)c1ccc2c(=O)n3c(nc2c1)CCCCC3)c1ccccc1C | > 35 µM (inactive) |
| CC(C)C(=O)n1nc(-c2cccnc2)nc1NCc1ccc(F)cc1 | > 35 µM (inactive) |
| O=C(N=Nc1c(O)[nH]c2ccc([N+](=O)[O-])cc12)c1cc(-c2ccccc2Cl)nc2ccccc12 | > 35 µM (inactive) |
| COC(=O)c1ccc(C(=O)OC)c(NC(=O)CSc2ccccn2)c1 | > 35 µM (inactive) |
| COC(=O)CSc1nc(N)c2c3c(sc2n1)C(c1ccccc1)SC(c1ccccc1)C3 (configuration not stated) | > 35 µM (inactive) |
| Cc1ccc(C)c(N(C)C(=O)c2ccc3c(=O)n4c(nc3c2)CCCCC4)c1 | > 35 µM (inactive) |
| Cc1coc(NC(=O)CSc2nc(-c3ccc(Cl)cc3)cc(C(F)(F)F)c2C#N)n1 | > 35 µM (inactive) |
| NS(=O)(=O)c1ccc(N/N=C/c2cn(-c3ccccc3)nc2-c2ccccc2)c([N+](=O)[O-])c1 | 27.1 µM |
| CC(=O)c1cccc(CN2CCN(CCc3ccccc3)C(CCO)C2)c1 (configuration not stated) | > 35 µM (inactive) |
| CCOc1cc(/C=C2/C(=N)N3C=CSC3=NC2=O)ccc1OCCCOc1ccccc1C | 18 µM |
| CN(CC(O)COC(c1ccccc1)c1ccccc1)C1CCCCC1 (configuration not stated) | > 35 µM (inactive) |
| O=C(CSc1ccc(F)cc1)Nc1ccc(C2SCCS2)cc1 | > 35 µM (inactive) |
| C[N+](C)(C)CCNC(=O)c1cc[n+](Cc2ccccc2)c(/C=N/O)c1 | > 35 µM (inactive) |
